Reference: PMC2694132 (Cancer research, 2009)

Experiments:
[1] = SAHA glucuronidation in human colon homogenate; format: in vitro ADME; conditions: 200 μg protein
[2] = target: T1, UGT2B4 (Homo sapiens, UniProt P06133); assay: SAHA glucuronidation screen, UGT2B4-overexpressing cell homogenate; format: in vitro ADME; conditions: 400 μg UGT-overexpressing cell homogenate, 1-h incubation
T1 sequence (P06133 24-528): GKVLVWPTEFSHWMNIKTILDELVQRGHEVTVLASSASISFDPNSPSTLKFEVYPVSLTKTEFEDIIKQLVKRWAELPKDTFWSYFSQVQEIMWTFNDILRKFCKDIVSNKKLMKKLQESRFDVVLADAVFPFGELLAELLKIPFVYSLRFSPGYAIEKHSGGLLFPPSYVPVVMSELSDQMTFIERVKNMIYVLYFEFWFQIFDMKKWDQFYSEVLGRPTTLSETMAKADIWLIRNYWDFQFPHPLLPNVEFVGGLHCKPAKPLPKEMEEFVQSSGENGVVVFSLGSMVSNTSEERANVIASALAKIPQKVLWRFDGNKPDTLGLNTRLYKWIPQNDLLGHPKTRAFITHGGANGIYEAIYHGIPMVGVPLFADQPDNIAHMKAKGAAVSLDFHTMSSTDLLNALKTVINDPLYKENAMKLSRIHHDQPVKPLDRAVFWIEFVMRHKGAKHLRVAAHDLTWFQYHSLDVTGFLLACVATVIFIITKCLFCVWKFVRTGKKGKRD

[3] = in vitro; conditions: human, pH 7.5
[4] = target: T2, UGT2B7 (Homo sapiens, UniProt P16662); assay: SAHA glucuronidation screen, UGT2B7-overexpressing cell homogenate; format: in vitro ADME
T2 sequence (P16662 24-529): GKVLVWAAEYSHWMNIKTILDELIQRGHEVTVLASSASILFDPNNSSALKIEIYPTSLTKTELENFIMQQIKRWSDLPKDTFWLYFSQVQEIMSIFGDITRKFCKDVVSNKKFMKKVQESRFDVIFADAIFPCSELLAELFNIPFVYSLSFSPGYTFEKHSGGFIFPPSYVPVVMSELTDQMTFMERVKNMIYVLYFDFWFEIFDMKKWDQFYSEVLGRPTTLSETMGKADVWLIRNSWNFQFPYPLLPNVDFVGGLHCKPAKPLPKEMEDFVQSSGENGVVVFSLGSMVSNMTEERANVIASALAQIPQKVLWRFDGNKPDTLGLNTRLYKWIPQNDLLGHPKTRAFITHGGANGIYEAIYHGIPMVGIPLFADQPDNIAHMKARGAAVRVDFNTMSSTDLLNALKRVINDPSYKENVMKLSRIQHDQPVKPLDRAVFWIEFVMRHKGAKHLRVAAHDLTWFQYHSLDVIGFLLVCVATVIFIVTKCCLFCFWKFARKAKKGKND

[5] = target: T3, UGT1A6 (Homo sapiens, UniProt P19224); assay: SAHA glucuronidation screen, UGT1A6-overexpressing cell homogenate; format: in vitro ADME
T3 sequence (P19224 27-532): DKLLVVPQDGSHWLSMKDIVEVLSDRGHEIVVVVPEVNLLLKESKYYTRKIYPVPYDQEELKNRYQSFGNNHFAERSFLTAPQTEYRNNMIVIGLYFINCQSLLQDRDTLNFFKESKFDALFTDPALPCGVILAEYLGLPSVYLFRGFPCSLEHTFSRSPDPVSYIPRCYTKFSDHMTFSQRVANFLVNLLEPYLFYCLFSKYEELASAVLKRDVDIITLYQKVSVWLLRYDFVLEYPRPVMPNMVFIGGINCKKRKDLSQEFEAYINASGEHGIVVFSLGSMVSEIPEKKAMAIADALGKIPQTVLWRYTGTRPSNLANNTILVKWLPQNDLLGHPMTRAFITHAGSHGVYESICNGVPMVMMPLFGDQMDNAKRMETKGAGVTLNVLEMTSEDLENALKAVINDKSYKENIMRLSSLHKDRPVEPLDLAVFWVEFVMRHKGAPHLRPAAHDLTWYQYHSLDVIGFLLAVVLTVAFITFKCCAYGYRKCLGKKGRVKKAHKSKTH

[6] = target: T4, UGT1A10 (Homo sapiens, UniProt Q9HAW8); assay: SAHA glucuronidation, wild-type UGT1A10; format: in vitro ADME
T4 sequence (Q9HAW8 26-530): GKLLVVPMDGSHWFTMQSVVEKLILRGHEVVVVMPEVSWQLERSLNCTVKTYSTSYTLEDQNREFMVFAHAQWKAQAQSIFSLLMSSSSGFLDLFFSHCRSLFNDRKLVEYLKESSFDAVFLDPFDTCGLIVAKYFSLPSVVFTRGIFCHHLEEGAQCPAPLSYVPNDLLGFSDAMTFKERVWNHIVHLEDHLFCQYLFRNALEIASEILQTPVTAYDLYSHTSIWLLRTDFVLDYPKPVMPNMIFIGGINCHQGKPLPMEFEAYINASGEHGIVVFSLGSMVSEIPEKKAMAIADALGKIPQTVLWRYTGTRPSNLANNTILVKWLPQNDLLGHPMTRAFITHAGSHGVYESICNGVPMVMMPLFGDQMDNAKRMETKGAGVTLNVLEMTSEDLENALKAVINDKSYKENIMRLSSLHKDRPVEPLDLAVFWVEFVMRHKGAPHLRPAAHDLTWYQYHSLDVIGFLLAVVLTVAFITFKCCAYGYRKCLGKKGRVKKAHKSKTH

[7] = target: T5, UGT2B17 (Homo sapiens, UniProt O75795); assay: SAHA glucuronidation, UGT2B17-overexpressing HEK293 cell homogenate; format: in vitro ADME
T5 sequence (O75795 24-530): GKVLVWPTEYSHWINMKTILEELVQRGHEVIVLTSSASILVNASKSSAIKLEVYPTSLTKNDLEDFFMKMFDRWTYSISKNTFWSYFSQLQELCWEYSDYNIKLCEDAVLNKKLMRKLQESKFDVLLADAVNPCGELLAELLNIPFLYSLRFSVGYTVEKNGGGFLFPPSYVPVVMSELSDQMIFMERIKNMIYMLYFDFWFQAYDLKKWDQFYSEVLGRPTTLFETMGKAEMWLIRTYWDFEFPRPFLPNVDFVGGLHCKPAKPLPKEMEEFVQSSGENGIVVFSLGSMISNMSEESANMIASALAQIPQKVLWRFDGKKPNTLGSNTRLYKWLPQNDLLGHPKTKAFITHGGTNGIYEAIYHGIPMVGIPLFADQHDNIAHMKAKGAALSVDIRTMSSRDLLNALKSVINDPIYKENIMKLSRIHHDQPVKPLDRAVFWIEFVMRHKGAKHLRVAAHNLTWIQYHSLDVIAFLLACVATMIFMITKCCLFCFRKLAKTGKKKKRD

[8] = 400 μg UGT-overexpressing cell homogenate, 1-h incubation

## O=C(CCCCCCC(=O)Nc1ccccc1)NO [SAHA, Suberoylanilide hydroxamic acid]
[1]
  glucuronidation activity against SAHA: significant levels of glucuronidation activity
[2]
  glucuronidation activity against SAHA (screen): No detectable glucuronidation activity
[3]; human liver microsomes from UGT2B17 (*1/*1) subjects
  Km: 1200 µM
[3]; human liver microsomes from UGT2B17 (*2/*2) subjects
  Km: 2100 µM
[4]; [8]
  glucuronidation against SAHA: detectable levels of glucuronidation
[4]; human, UGT2B7-overexpressing cell homogenate, pH 7.5
  Km at 1 h: > 8000 µM
[5]; [8]
  glucuronidation against SAHA: detectable levels of glucuronidation
[5]; human, UGT1A6-overexpressing cell homogenate, pH 7.5
  Km at 1 h: > 8000 µM
[6]; [8]
  glucuronidation against SAHA (screen): high levels of glucuronidation
[6]; against SAHA
  KM of UGT1A10 higher than that observed for UGT2B17: 3 fold
[6]; human, pH 7.5
  Km at 1 h: 1000 ± 100 µM
[7]; [8]
  glucuronidation against SAHA (screen): high levels of glucuronidation
[7]; against SAHA
  apparent KM of UGT2B17 lower than that of UGT1A3: 11 fold
  apparent KM of UGT2B17 lower than that of UGT1A9: 5 fold
  higher level of glucuronidation activity (Vmax/KM) of UGT2B17 compared with UGT1A3: 9.4 fold
  higher level of glucuronidation activity (Vmax/KM) of UGT2B17 compared with UGT1A9: 2.3 fold
[7]; human, UGT2B17-overexpressing HEK293 cell homogenate, pH 7.5
  Km at 1 h: 300 ± 100 µM
